Results as given in US20190269132A1 (ROHM AND HAAS COMPANY, priority 2016, published 2019).

Tested on: Chlorella sp. ATCC 7516
Test: Algal efficacy testing of dry paint films (modified ASTM 5589, 6-well plates)
Type: cell-based
Description: These paints were then diluted with a biocide free acrylic/silicone based paint and mixed to prepare targeted concentrations of biocide combinations for the testing. The total biocides concentrations obtained were 125, 250, 500, 1000, 2000 and 5000 ppm. After biocides addition or dilution, the paints were mixed 90 seconds with the horse power shaker (AXEL 75M3372/Agitateur SO-10MI) until uniformity was achieved. […] After one day, the paints were applied to Schleicher & Schuell filter paper at 280 μm wet film thickness and dried for 3 days at room temperature avoiding direct exposure to sunlight. Square discs (1.8 cm×1.8 cm) were cut out from each panel and were used as the substrate for algal efficacy tests. This sample size allowed for an agar border when the sample disc was placed into the well of the test plate.
Algal efficacy was tested according to modified ASTM 5589 which is a standard accelerated test method for determining resistance of various coatings (including paints) to algal defacement. To accommodate for high-throughput screening, this method was scaled down from petri plates to 6-well plates. Bold Modified Basal Freshwater Nutrient Solution was used as growth medium for the algal culture and Bold's agar was used for the efficacy testing. A single coupon was placed with a pair of sterile forceps at the center of the agar plug (on top) with the painted surface facing upwards. The algal inoculum was prepared by diluting an exponentially growing culture of Chlorella sp. to 1×10^6 cfu/ml.
Each well that contains a tested coupon was inoculated with 1750 μl of algal suspension (1×10^6 cfu/ml) making sure that the whole surface (paint film as well as the agar surrounding it) was evenly covered. The plates were incubated at room temp (21° C.-25° C.) with cyclic exposure to 14 hours fluorescent light followed by 10 hours darkness, for a period of three weeks.
At the end of the incubation period the samples were scored for percent inhibition regarding color intensity compared to the blank sample
The SI is calculated based on F. C. Kull et. […]

Compound | inhibition at 5000 ppm (504 h, Chlorella, total conc 5000 ppm in paint, three weeks, colour intensity vs blank) | Total conc, ppm (lowest total biocide concentration in paint reaching pass level of 75% inhibition) (Chlorella sp., acrylic/silicone paint film on filter paper, three weeks incubation, pass level ≥75% inhibition) | % inhibition (Chlorella, total conc 1′000 ppm in paint, three weeks, colour intensity vs blank)
O=c1[nH]sc2ccccc12 [BIT, 1,2-benzisothiazol-3(2H)-one] | 95% | 5000 ppm | –
O=c1[nH]c2c(c(=O)n1C1CCCCC1)CCC2 [LENACIL, 3-Cyclohexyl-6,7-dihydro-1H-cyclopentapyrimidine-2,4-(3H,5H)-dione] | – | – | 90%
